In US10363239B2, “Method for inhibiting growth of cancer cells” (Pain Therapeutics, Inc., priority 2013, dated 2019):
Read-outs that look alike come from different tables or passages of the source.

Experiments:
mu opiate receptor (MOR) = experiment: MOR agonist activity using [35S]GTPγS binding assay in striatal membranes; format: biochemical; conditions: for % DAMGO (0.1 μM) / % DAMGO (1 μM): relative to DAMGO; for % DAMGO + BFNA: 1 μM compound + β-FNA, relative to DAMGO + BFNA
Method in brief: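 Striatal membranes (200 μg) were preincubated 5 min at 30 °C in HEPES pH 7.5 with 100 mM NaCl, 1 mM MgCl2 and 0.5 nM [35S]GTPγS, then 5 min more with 0.1–10 μM compound. Gαo was immunoprecipitated and bound radioactivity counted by scintillation.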

[1] = molecular target: FLNA pentapeptide of SEQ ID NO: 1 (Bn-VAKGL) (Homo sapiens, UniProt P21333); experiment: FITC-NLX-based FLNA screening assay (inhibition of FITC-naloxone binding to Bn-VAKGL on streptavidin plates); conditions: for inhibition at 0.01 µM / inhibition at 0.1 µM / inhibition at 1 µM: 10 nM FITC-NLX
[2] = read-out: Percent Binding Inhibition, FLNA-binding compound 0.01 μM
[3] = read-out: Percent Binding Inhibition, FLNA-binding compound 0.1 μM
[4] = read-out: Percent Binding Inhibition, FLNA-binding compound 1 μM
[5] = Series C-1, 0.1 μM compound, [35S]GTPγS binding to Gαo, striatal membranes
[6] = Series C-1, 1 μM compound + 1 μM β-FNA
[7] = Series C-1, 1 μM compound, [35S]GTPγS binding to Gαo, striatal membranes
[8] = FLNA-binding compound 0.01 μM, read-out: Percent Binding Inhibition
[9] = FLNA-binding compound 0.1 μM, read-out: Percent Binding Inhibition
[10] = FLNA-binding compound 1 μM, read-out: Percent Binding Inhibition

Row | Structure (SMILES) | inhibition at 0.01 µM [1, 2] | inhibition at 0.1 µM [1, 3] | inhibition at 1 µM [1, 4] | % DAMGO (0.1 μM) (mu opiate receptor (MOR); Series C-1, 0.1 μM compound) | Concentration of FLNA-Binding Compound as Agonist 0.1 μM (mu opiate receptor (MOR); [5]) | Concentration of FLNA-Binding Compound as Agonist 1 μM + BFNA (mu opiate receptor (MOR); [6]) | % DAMGO + BFNA (mu opiate receptor (MOR); Series C-1) | % DAMGO (1 μM) (mu opiate receptor (MOR); Series C-1, 1 μM compound) | Concentration of FLNA-Binding Compound as Agonist 1 μM (mu opiate receptor (MOR); [7]) | further results
1 | CCOc1ccc(C(=O)CC2c3c(cc4c(c3OC)OCO4)CC[N+]2(C)C)cc1F (centres unmarked) [Compound B0020] | 38.1% | 45.5% | 50.6% |  |  |  |  |  |  | % DAMGO (0.1 μM) (mu opiate receptor (MOR); Series B, 0.1 μM compound): 30.1%; MOR agonist activity, percent [35S]GTPγS binding at the stated compound concentration (mu opiate receptor (MOR); Series B, 0.1 μM compound, [35S]GTPγS binding to Gαo, striatal membranes): 51.6%; MOR agonist activity, percent [35S]GTPγS binding at the stated compound concentration (mu opiate receptor (MOR); Series B, 1 μM compound + 1 μM β-FNA): 24.9%; % DAMGO + BFNA (mu opiate receptor (MOR); Series B): 47.8%; % DAMGO (1 μM) (mu opiate receptor (MOR); Series B, 1 μM compound): 68.0%; MOR agonist activity, percent [35S]GTPγS binding at the stated compound concentration (mu opiate receptor (MOR); Series B, 1 μM compound, [35S]GTPγS binding to Gαo, striatal membranes): 181.6%
2 | N#Cc1ccc(S(=O)(=O)N2CCC3(CC2)OCCN3S(=O)(=O)c2ccc(C#N)cc2)cc1 [Compound C0008] |  |  |  | 41.4% | 71.2% | 2.8% | 4.4% | 72.9% | 201.6% | inhibition at 0.01 µM [1, 8]: 42.2%; inhibition at 0.1 µM [1, 9]: 52.3%; inhibition at 1 µM [1, 10]: 54.4%
3 | CCCCN1CCC2(CC1)OCCN2S(=O)(=O)c1ccc(C(C)=O)cc1 [Compound C0101M] |  |  |  |  |  |  |  |  |  | % DAMGO (0.1 μM) (mu opiate receptor (MOR); Series C-2, 0.1 μM compound): 82.5%; MOR agonist activity, percent [35S]GTPγS binding at the stated compound concentration (mu opiate receptor (MOR); Series C-2, 0.1 μM compound, [35S]GTPγS binding to Gαo, striatal membranes): 138.2%; MOR agonist activity, percent [35S]GTPγS binding at the stated compound concentration (mu opiate receptor (MOR); Series C-2, 1 μM compound + 1 μM β-FNA): 174.8%; % DAMGO + BFNA (mu opiate receptor (MOR); Series C-2): 368.0%; % DAMGO (1 μM) (mu opiate receptor (MOR); Series C-2, 1 μM compound): 123.4%; MOR agonist activity, percent [35S]GTPγS binding at the stated compound concentration (mu opiate receptor (MOR); Series C-2, 1 μM compound, [35S]GTPγS binding to Gαo, striatal membranes): 274.3%; inhibition at 0.01 µM [1, 8]: 50.5%; inhibition at 0.1 µM [1, 9]: 56.4%; inhibition at 1 µM [1, 10]: 59%
4 | O=S(=O)(c1ccc(Oc2ccccc2)cc1)N1CCC2(CC1)OCCN2S(=O)(=O)c1ccc(Oc2ccccc2)cc1 [Compound C0149M] | 48.5% | 52.3% | 62% | 122.0% | 209.8% | 93.4% | 102.3% | 124.8% | 406.7% | 
5 | O=S(=O)(c1csc2ccccc12)N1CCC2(CC1)OCCN2S(=O)(=O)c1csc2ccccc12 [Compound C0150M] | 47.3% | 51.8% | 61.4% | 97.2% | 167.1% | 93.4% | 173.2% | 129.8% | 423.1% | 
6 | CC(=O)c1ccc(S(=O)(=O)N2CCC3(CC2)NC(=O)C(Cc2cnc[nH]2)N3S(=O)(=O)c2ccc(C(C)=O)cc2)cc1 (centres unmarked) [Compound C0084M] | 47.2% | 53.7% | 55.9% | 97.3% | 163.1% | 133.2% | 280.4% | 114.9% | 255.5% | 
7 | Cc1ccc(S(=O)(=O)N2CCOC23CCN(CC2CCC2)CC3)cc1 [Compound 9] |  |  |  |  |  |  |  |  |  | MOR agonist activity, FLNA-Binding Compound as Agonist 0.1 μM (preliminary study) (mu opiate receptor (MOR); 0.1 μM, average of two runs): 156.6%; MOR agonist activity, FLNA-Binding Compound as Agonist 1 μM + βNFA (preliminary study) (mu opiate receptor (MOR); 1 μM + βNFA, average of two runs): 56.6%; MOR agonist activity, FLNA-Binding Compound as Agonist 1 μM (preliminary study) (mu opiate receptor (MOR); 1 μM, average of two runs): 197.2%; MOR agonist activity (conclusion in words) (mu opiate receptor (MOR); preliminary study): MOR agonists; Binding to FLNA (conclusion in words) ([1]; preliminary study): bind well to FLNA
8 | N#Cc1ccccc1S(=O)(=O)N1CCC2(CC1)OCCN2S(=O)(=O)c1ccccc1C#N [Compound C0004] | 37.6% | 42.3% | 44.7% | 72.1% | 122.0% | 65.8% | 99.7% | 85.4% | 228.4% | 
